Data published in PubChem BioAssay (NCI).
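96-well plates; 48 h exposure; 5 concentrations. Endpoints by linear interpolation between flanking doses. Not reached: highest tested concentration assigned. The concentration for 50% growth inhibition is given as GI50. TGI denotes the concentration required for complete inhibition of growth.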

Experiments:
Assay in all cases: inhibition of tumour cell growth, NCI panel, 48 h
[1] = system: TK-10 renal
[2] = system: SF-268 CNS
[3] = system: SNB-19 CNS
[4] = system: CAKI-1 renal
[5] = system: NCI-H460 lung
[6] = system: IGROV1 ovarian
[7] = system: MOLT-4 leukemia
[8] = system: LOX IMVI melanoma
[9] = system: M14 melanoma
[10] = system: HCT-116 colon

`Cn1cnc([N+](=O)[O-])c1Sc1ncnc2c1ncn2C1OC(CO)C(O)C1O` (stereo not given) showed a GI50 [1] of 4.58 µM, a TGI [1] of over 100 µM and a GI50 [2] of 18.4 µM. It also gave a TGI [2] of over 100 µM, a GI50 [3] of over 100 µM and a TGI [3] of over 100 µM. For the same molecule, the GI50 [4] was 3.53 µM, the TGI [4] was over 100 µM and the GI50 [5] was 5.72 µM. For the same molecule, the TGI [5] was over 100 µM, the GI50 [6] was 11.4 µM and the TGI [6] was over 100 µM. For the same molecule, the GI50 [7] was 8.32 µM, the TGI [7] was 64.5 µM and the GI50 [8] was 1.71 µM. The TGI [8] was over 100 µM, the GI50 [9] was 2.29 µM and the TGI [9] was over 100 µM. It also gave a GI50 [10] of 4.62 µM and a TGI [10] of over 100 µM.
`O=Cc1coc2ccccc2c1=O` gave a TGI [1] of 60.5 µM, a TGI [2] of 56.7 µM and a TGI [3] of 70.4 µM. For the same molecule, the TGI [4] was 52.9 µM, the TGI [5] was 50.9 µM and the TGI [6] was 41.4 µM. The TGI [7] was 96.1 µM, the TGI [8] was 37.1 µM and the TGI [9] was 38.5 µM. It also gave a TGI [10] of 32 µM.
Molecule `COc1ccc(C(=O)C=C2NCCN2)cc1` has a TGI [1] of over 100 µM, a TGI [2] of over 100 µM and a TGI [3] of over 100 µM. The TGI [4] was over 100 µM, the TGI [5] was over 100 µM and the TGI [6] was over 100 µM. The TGI [7] was over 100 µM, the TGI [8] was over 100 µM and the TGI [9] was over 100 µM. It also gave a TGI [10] of over 100 µM.
For `Cc1cc(C)nc(NS(=O)(=O)c2ccc(NC(=O)c3cccc4cc5ccccc5nc34)cc2)n1`, the TGI [1] was over 100 µM, the TGI [2] was over 100 µM and the TGI [3] was 90.7 µM. It also gave a TGI [4] of over 100 µM, a TGI [5] of over 100 µM and a TGI [6] of over 100 µM. For the same molecule, the TGI [7] was over 100 µM, the TGI [8] was 56.1 µM and the TGI [9] was 51.4 µM. For the same molecule, the TGI [10] was 32.1 µM.
`COc1ccc(/C=C(\C#N)c2cc3ccccc3n2C)cc1` showed a GI50 [1] of 4.51 µM, a TGI [1] of over 100 µM and a GI50 [2] of 2.52 µM. For the same molecule, the TGI [2] was over 100 µM, the GI50 [3] was 0.492 µM and the TGI [3] was over 100 µM. The GI50 [4] was 0.437 µM, the TGI [4] was over 100 µM and the GI50 [5] was 0.389 µM. The TGI [5] was 37.9 µM, the GI50 [6] was 0.526 µM and the TGI [6] was over 100 µM. It also gave a GI50 [7] of 0.448 µM, a TGI [7] of over 40.3 µM and a GI50 [8] of 0.577 µM. The TGI [8] was over 100 µM, the GI50 [9] was 0.308 µM and the TGI [9] was over 100 µM. For the same molecule, the GI50 [10] was 0.426 µM and the TGI [10] was over 100 µM.
Molecule `C#Cc1ccc(NC(=O)c2ccc(/C=C/C(=O)c3nccn3C)cc2)cc1` has a GI50 [1] of 0.905 µM, a TGI [1] of 4.66 µM and a GI50 [2] of 0.76 µM. The TGI [2] was 4.5 µM, the GI50 [3] was 0.512 µM and the TGI [3] was 1.35 µM. For the same molecule, the GI50 [4] was 0.51 µM, the TGI [4] was 1.34 µM and the GI50 [5] was 0.586 µM. It also gave a TGI [5] of 1.64 µM, a GI50 [6] of 0.407 µM and a TGI [6] of 0.884 µM. It also gave a GI50 [7] of 0.582 µM, a TGI [7] of 1.54 µM and a GI50 [8] of 0.365 µM. The TGI [8] was 0.711 µM, the GI50 [9] was 0.47 µM and the TGI [9] was 0.96 µM. For the same molecule, the GI50 [10] was 0.326 µM and the TGI [10] was 0.721 µM.
In the case of `CCNCC(O)c1ccc(N)c([N+](=O)[O-])c1` (stereo not given), the TGI [1] is reported as over 100 µM, the TGI [2] is reported as over 100 µM and the TGI [3] is reported as over 100 µM. It also gave a TGI [4] of over 100 µM, a TGI [5] of over 100 µM and a TGI [6] of over 100 µM. For the same molecule, the TGI [7] was over 100 µM, the TGI [8] was over 100 µM and the TGI [9] was over 100 µM. It also gave a TGI [10] of over 100 µM.
Molecule `Fc1ccc(-c2ncn(C3CCNCC3)c2-c2ccnc(Oc3cccc(F)c3)n2)cc1` has a GI50 [1] of 17.1 µM, a TGI [1] of over 25 µM and a GI50 [2] of over 23.3 µM. The TGI [2] was over 25 µM, the GI50 [3] was over 25 µM and the TGI [3] was over 25 µM. The GI50 [4] was 17.9 µM, the TGI [4] was over 25 µM and the GI50 [5] was 7.46 µM. For the same molecule, the TGI [5] was over 21.8 µM, the GI50 [6] was 12.4 µM and the TGI [6] was over 25 µM. For the same molecule, the GI50 [7] was 12.7 µM, the TGI [7] was over 25 µM and the GI50 [8] was 10.5 µM. For the same molecule, the TGI [8] was over 25 µM, the GI50 [9] was 5.26 µM and the TGI [9] was 10.5 µM. The GI50 [10] was 9.3 µM and the TGI [10] was over 21.4 µM.
`O=[As](O)(O)c1ccc(Cc2ccc([As](=O)(O)O)cc2)cc1` gave a TGI [1] of 1.27 µM, a TGI [2] of 1.85 µM and a TGI [3] of 2.65 µM. It also gave a TGI [4] of 2.78 µM, a TGI [5] of 2.43 µM and a TGI [6] of 1.94 µM. It also gave a TGI [7] of 4.26 µM, a TGI [8] of 1.41 µM and a TGI [9] of 2.46 µM. For the same molecule, the TGI [10] was 2.13 µM.
`Cn1ccnc1C(=O)/C=C/c1ccc(C(=O)Nc2nc3ccccc3[nH]2)cc1` was tested, and the GI50 [1] was 13.3 µM, the TGI [1] was over 25 µM and the GI50 [2] was 2.41 µM. It also gave a TGI [2] of over 25 µM, a GI50 [3] of 9.75 µM and a TGI [3] of over 25 µM. For the same molecule, the GI50 [4] was 1.63 µM, the TGI [4] was over 25 µM and the GI50 [5] was 1.6 µM. The TGI [5] was over 25 µM, the GI50 [6] was 5.67 µM and the TGI [6] was over 25 µM. The GI50 [7] was 7.26 µM, the TGI [7] was over 25 µM and the GI50 [8] was 2.38 µM. The TGI [8] was over 25 µM, the GI50 [9] was 10.3 µM and the TGI [9] was over 25 µM. For the same molecule, the GI50 [10] was 1.5 µM and the TGI [10] was over 25 µM.
In the case of `N#Cc1nc(-c2ccccc2)oc1S(=O)(=O)N1CCOCC1`, the GI50 [1] is reported as 6.25 µM, the TGI [1] is reported as 19.2 µM and the GI50 [2] is reported as 13.5 µM. For the same molecule, the TGI [2] was 40.4 µM, the GI50 [3] was 28 µM and the TGI [3] was over 100 µM. It also gave a GI50 [4] of 1.61 µM, a TGI [4] of 3.04 µM and a GI50 [5] of 17.3 µM. It also gave a TGI [5] of 37.2 µM, a GI50 [6] of 8 µM and a TGI [6] of 23.2 µM. The GI50 [7] was 2.01 µM, the TGI [7] was 5.08 µM and the GI50 [8] was 1.46 µM. For the same molecule, the TGI [8] was 2.91 µM, the GI50 [9] was 2.26 µM and the TGI [9] was 7.42 µM. It also gave a GI50 [10] of 1.74 µM and a TGI [10] of 3.42 µM.
`Cc1ccc(Nc2ccc(Nc3ccc(C)cc3)c3c2C(=O)c2c(O)ccc(O)c2C3=O)cc1` showed a TGI [1] of over 100 µM, a TGI [2] of over 100 µM and a TGI [3] of over 100 µM. The TGI [4] was over 100 µM, the TGI [5] was over 100 µM and the TGI [6] was over 100 µM. The TGI [7] was over 100 µM, the TGI [8] was over 100 µM and the TGI [9] was over 100 µM. For the same molecule, the TGI [10] was over 100 µM.
Molecule `C[C@H]1[C@@H](OCC(CO[C@H]2O[C@@H]3O[C@@]4(C)CC[C@H]5[C@H](C)CC[C@@H]([C@H]2C)[C@@]35OO4)=NOCC(=O)O)OC2O[C@@]3(C)CC[C@H]4[C@H](C)CC[C@@H]1[C@@]24OO3` (stereo not given in full) has a GI50 [1] of 0.0408 µM, a TGI [1] of 4.57 µM and a GI50 [2] of under 0.0231 µM. The TGI [2] was 0.889 µM, the GI50 [3] was 0.613 µM and the TGI [3] was 18.7 µM. The GI50 [4] was 0.117 µM, the TGI [4] was 3.12 µM and the GI50 [5] was 0.0537 µM. For the same molecule, the TGI [5] was 19.5 µM, the GI50 [6] was 0.0673 µM and the TGI [6] was 21.3 µM. For the same molecule, the GI50 [7] was under 0.01 µM, the TGI [7] was 8.61 µM and the GI50 [8] was under 0.01 µM. The TGI [8] was 13.3 µM, the GI50 [9] was 0.205 µM and the TGI [9] was 18.8 µM. For the same molecule, the GI50 [10] was under 0.01 µM and the TGI [10] was 13.7 µM.
`CCS/C(Nc1ccccc1)=C(\C#N)C(=O)Nc1ccc(OC)cc1` showed a GI50 [1] of 24.3 µM, a TGI [1] of over 100 µM and a GI50 [2] of 6.8 µM. It also gave a TGI [2] of over 100 µM, a GI50 [3] of 3.55 µM and a TGI [3] of over 100 µM. It also gave a GI50 [4] of 3.39 µM, a TGI [4] of over 100 µM and a GI50 [5] of 3.14 µM. The TGI [5] was 34.2 µM, the GI50 [6] was 5.3 µM and the TGI [6] was over 100 µM. The GI50 [7] was 2.61 µM, the TGI [7] was over 100 µM and the GI50 [8] was 6.16 µM. It also gave a TGI [8] of over 100 µM, a GI50 [9] of 2.27 µM and a TGI [9] of 87.4 µM. For the same molecule, the GI50 [10] was 1.95 µM and the TGI [10] was 16.4 µM.
Molecule `CC(=O)N1CC(F)(F)c2c(Sc3ncc(N4CCC5(CC4)COC[C@H]5N)nc3N)cccc21` has a GI50 [1] of 0.991 µM, a TGI [1] of 35.8 µM and a GI50 [2] of 17.4 µM. It also gave a TGI [2] of over 100 µM, a GI50 [3] of 14.4 µM and a TGI [3] of over 100 µM. It also gave a GI50 [4] of 3.68 µM, a TGI [4] of 30 µM and a GI50 [5] of 31.8 µM. For the same molecule, the TGI [5] was over 100 µM, the GI50 [6] was 2.47 µM and the TGI [6] was 86.9 µM. For the same molecule, the GI50 [7] was 21.1 µM, the TGI [7] was 67.7 µM and the GI50 [8] was 16.6 µM. For the same molecule, the TGI [8] was 32.1 µM, the GI50 [9] was 17.9 µM and the TGI [9] was 37.8 µM. For the same molecule, the GI50 [10] was 17.7 µM and the TGI [10] was 46.6 µM.
